Source: patent EP0998923A1, “Use of 5-HT7 receptor agonists for the treatment or prophylaxis of ischemias” (BASF AKTIENGESELLSCHAFT, priority 1998, dated 2000)

Columns and labels:
male Long Evans rats = assay: Permanent distal middle cerebral artery (MCA) occlusion, rat model of experimental stroke; type: in vivo
Experimental: The experiments were carried out in male Long Evans rats. Under halothane anesthesia supplemented with nitrous oxide, the right middle cerebral artery (MCA) was dissected and permanently ligated at a distal position as described in the literature. The outcome of the experiments was quantified by determining the resulting infarct volume 22 hours after MCA occlusion.
In the first series of experiments, animals were treated with 2 mg/kg R(+)-8-OH-DPAT i.v. followed by a maintenance infusion of 1 mg/kg/h R(+)-8-OH-DPAT i.v. Drug administration was started 90 min after MCA occlusion. In the second series of experiments, rats were pretreated with 2.14 mg/kg/h WAY 100,635 i.p., started 2 hours before MCA occlusion; administration of R(+)-8-OH-DPAT was subsequently performed as in the first study. Accordingly, in the second series a total dose of 2.14 mg/kg/h of WAY 100,635 had been administered for 3.5 h (total dosage = 7.49 mg/kg) before treatment with the agonist R(+)-8-OH-DPAT commenced. The blockade of 5-HT1A receptors under these conditions was confirmed by the complete lack of stereotyped behavior observed in animals treated with R(+)-8-OH-DPAT […]. Under the conditions of the second series, any pharmacological effect of R(+)-8-OH-DPAT treatment are mediated by the 5-HT7 receptor.
The experiments were carried out under the same conditions as described in Example 1,
A preferred 5-HT7 receptor agonist is 1-[3-[4-[3-(trifluoromethyl)-phenyl]-piperazine-1-yl]-propyl]-3-hydroxy-1H-pyridine-2-on (= Compound A), a compound which can be prepared as discribed in example 3. The 5-HT7 agonist Compound A was administered as an intravenous bolus followed by a maintenance infusion.

5-HT7 receptor = 5-HT7 receptor (Homo sapiens, UniProt P34969); assay: Affinity to the 5-HT7 receptor; type: binding
Sequence of 5-HT7 receptor (P34969 whole entry): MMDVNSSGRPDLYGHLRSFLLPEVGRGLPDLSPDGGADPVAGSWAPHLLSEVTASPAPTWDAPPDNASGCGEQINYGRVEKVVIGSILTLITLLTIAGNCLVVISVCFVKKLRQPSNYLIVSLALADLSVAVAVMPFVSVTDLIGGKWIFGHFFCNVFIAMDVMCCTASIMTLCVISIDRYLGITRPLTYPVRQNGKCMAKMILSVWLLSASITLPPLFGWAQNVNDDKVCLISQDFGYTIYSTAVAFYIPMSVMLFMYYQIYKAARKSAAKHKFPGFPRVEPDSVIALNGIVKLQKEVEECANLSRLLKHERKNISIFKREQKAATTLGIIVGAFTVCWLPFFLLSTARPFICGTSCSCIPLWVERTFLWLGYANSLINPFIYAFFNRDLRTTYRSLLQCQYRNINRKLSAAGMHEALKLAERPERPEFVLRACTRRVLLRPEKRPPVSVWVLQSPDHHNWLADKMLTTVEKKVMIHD
Description: (§1) The affinity of a compound to a human 5-HT receptor can be measured and calculated easily by methods known to a skilled person.

5-HT1A receptor = biological target: T1, 5-HT1A receptor (Homo sapiens, UniProt P08908); assay: Affinity to the 5-HT1A receptor; type: binding
T1 sequence (P08908 1-422): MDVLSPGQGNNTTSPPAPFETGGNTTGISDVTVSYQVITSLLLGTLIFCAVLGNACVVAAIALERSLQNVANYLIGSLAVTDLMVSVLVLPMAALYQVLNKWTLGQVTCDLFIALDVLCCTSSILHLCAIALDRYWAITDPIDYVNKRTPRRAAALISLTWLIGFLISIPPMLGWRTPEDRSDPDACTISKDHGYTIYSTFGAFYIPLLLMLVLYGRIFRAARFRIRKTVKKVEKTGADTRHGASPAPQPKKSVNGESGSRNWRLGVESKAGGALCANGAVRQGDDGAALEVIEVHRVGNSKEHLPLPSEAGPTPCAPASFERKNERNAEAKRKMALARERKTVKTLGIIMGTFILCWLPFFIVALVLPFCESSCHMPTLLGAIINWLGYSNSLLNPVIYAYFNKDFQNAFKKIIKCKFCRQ
Description: as §1

SMILES	Infarct volume, % of control, mean ± SD, (n) Treatment (male Long Evans rats; Example 1: 2 mg/kg R(+)-8-OH-DPAT i.v. + 1 mg/kg/h i.v. infusion, started 90 min after MCA occlusion, combination: pretreated with 2.14 mg/kg/h WAY 100,635 i.p. from 2 hours before occlusion, infarct volume 22 hours after occlusion)	Stereotyped behavior (male Long Evans rats; Example 1: same dosing as for infarct volume, with or without WAY 100,635 pretreatment)	reduction of infarct volume (male Long Evans rats; Example 1: versus placebo, 22 hours after MCA occlusion) [%]	Ki (5-HT7 receptor) [nM]	selectivity for the 5-HT7 receptor (5-HT7 receptor; 5-HT7 over 5-HT1A (ratio of Ki values))	Stereotyped behavior (male Long Evans rats; Example 2: dose 4+2 mg/kg + mg/kg/h i.v.)	Infarct volume, % of control, mean ± SD, (n) Treatment (male Long Evans rats; Example 2: dose 4+2 mg/kg + mg/kg/h i.v. (bolus + maintenance infusion), same conditions as Example 1)	Ki (5-HT1A receptor) [nM]
CCCN(CCC)C1CCc2cccc(O)c2C1 (stereo not drawn) [R(+)-8-OH-DPAT, 8-hydroxy-di-n-propylamino tetralin]	72±32(12) % of control	Yes	28	–	–	–	–	–
O=c1c(O)cccn1CCCN1CCN(c2cccc(C(F)(F)F)c2)CC1 [Compound A, 1-[3-[4-[3-(trifluoromethyl)-phenyl]-piperazine-1-yl]-propyl]-3-hydroxy-1H-pyridine-2-on]	–	–	–	7	approximately 19 fold	No	78±23(10) % of control	130
